Measured values taken from patent US10538545B2 (priority 2017, dated 2020).

Key:
[1] = tested on: AB (wild type) zebrafish embryos; conditions: in vivo
[2] = tested on: soluble guanylate cyclase (sGC); design: species or system C. elegans; conditions: in vivo
WT-AB zebrafish embryos = conditions: in vivo
metmyoglobin (metMb) = target: T1, metmyoglobin (metMb) (Equus caballus, UniProt P68082); experiment: Reaction of DNIC with metmyoglobin (nitroxyl transfer, UV-vis); format: biochemical; conditions: 10 μM DNIC + 10 μM metMb, 25 mM phosphate buffer pH 7.4
T1 construct: purchased TCl
Experimental: A typical procedure for nitroxyl-transfer reaction of DNIC-2 and metmyoglobin was described below using DNIC-2a as an example, whereas reaction of DNIC-2b/DNIC-2d and metMb follows the same procedure. 10 μM of metMb in 3.3 mL of 25 mM phosphate buffer (pH 7.4) was loaded in a 4-mL quartz cuvette and sealed with rubber septum under anaerobic N2 atmosphere. 10 μM of DNIC-2a (13.0 μL of 2.5 mM stock solution of DNIC-2a in THF) was added into this aqueous solution, which is thermostated at 25° C. UV-vis spectra of this reaction solution were measured after this reaction solution was incubated for 10 minutes.
A typical procedure for reaction of DNIC-1 and metmyoglobin was described below. To a 4-mL quartz cuvette containing 10 μM of metMb in 3.3 mL of 25 mM phosphate buffer (pH 7.4), 10 μM of DNIC-1, derived from 13.0 μL of 2.5 mM stock solution of DNIC-1 in THF was added via gas-tight syringe at room temperature. The reaction solution was incubated at ambient temperature for 8 hours. No change of UV-vis spectra for this reaction solution was observed.
In example 1, the reaction of a variety of DNICs with metmyoglobin was investigated so as to verify the universal role of bridging ligands, thiolate vs. pyrazolate, on dictating the NO^−-transfer reactivity.

[3] = tested on: Tg (kdr:EGFP) zebrafish embryos; conditions: in vivo

T1 sequence (P68082 2-154 limits assumed): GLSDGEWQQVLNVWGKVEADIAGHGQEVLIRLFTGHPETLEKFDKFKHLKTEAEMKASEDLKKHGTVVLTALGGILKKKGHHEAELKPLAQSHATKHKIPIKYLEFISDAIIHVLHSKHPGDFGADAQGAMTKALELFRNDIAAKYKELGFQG

## CNC[C@H](O)c1ccc(O)c(O)c1 [Epinephrine, epinephrine, reference compound]
[1]
  Cardiac Output: 37.4 ± 6.1 nL/min
  Fractional Shortening: 0.25 ± 0.04
  Heart Rate: 144 ± 8 bpm
  Short Axis Diameter ED(Dd): 80.9 ± 1.4 μm
  Short Axis Diameter ES(Ds): 61.0 ± 2.5 μm
  Ventricular Volume ED: 0.46 ± 0.05 nL
  Ventricular Volume ED-ES: 0.26 ± 0.05 nL
  Ventricular Volume ES: 0.20 ± 0.03 nL

## [(NO)2Fe(μ-^NH2Pyr)2Fe(NO)2] [DNIC-2a]
[2]
  increase of the GFP fluorescence signal in CX3553 worms: about 5.7 fold
WT-AB zebrafish embryos
  Survival rate of zebrafish, Day 3: 100 ± 0.0%
  Survival rate of zebrafish, Day 4: 99.6 ± 0.7%
  Survival rate of zebrafish, Day 5: 98.4 ± 2.7%
  acute toxicity on zebrafish embryo: no acute toxicity
[1]
  Cardiac Output: 48.4 ± 4.5 nL/min
  Fractional Shortening: 0.28 ± 0.02
  Heart Rate: 145 ± 7 bpm
  Short Axis Diameter ED(Dd): 83.3 ± 2.5 μm
  Short Axis Diameter ES(Ds): 59.6 ± 1.7 μm
  Ventricular Volume ED: 0.55 ± 0.03 nL
  Ventricular Volume ED-ES: 0.34 ± 0.02 nL
  Ventricular Volume ES: 0.21 ± 0.02 nL
  change of diameter of heart short-axis at end systole (ES): significant decrease
  enhancement of cardiac output: about 2 fold
  enhancement of fractional shortening: about 2 fold
Metmyoglobin (metMb)
  nitroxyl-transfer reactivity toward metmyoglobin (formation of MbNO, shift of UV-vis bands): nitroxyl transfer from DNIC-2a to metmyoglobin
[3]
  Vessel Diameter (dorsal aorta diameter): 25.6±0.6 μm
